Source: ChEMBL document CHEMBL3832761, “MMV Pathogen Box Bioactivity Data” (2017)
Values after ≈ are worked out from the molar mass of the structure shown.

What was measured:
Assay type in all cases: functional
[1] = test system: Mycobacterium tuberculosis; experiment: AntiMycobacterium tuberculosis activity Non-Replicating form: Average MIC90 (uM)
[2] = test system: Mycobacterium tuberculosis; experiment: AntiMycobacterium tuberculosis activity 1-week GAST/Fe MIC (uM); details: 168 h
[3] = test system: Mycobacterium tuberculosis; experiment: AntiMycobacterium tuberculosis activity 2-week GAST/Fe MIC (uM); details: 336 h
[4] = test system: Mycobacterium tuberculosis; experiment: AntiMycobacterium tuberculosis activity 1-week 7H9/ADC/Tw MIC (uM); details: 168 h
[5] = test system: Mycobacterium tuberculosis; experiment: AntiMycobacterium tuberculosis activity 2-week 7H9/ADC/Tw MIC (uM); details: 336 h
[6] = test system: Mycobacterium tuberculosis; experiment: AntiMycobacterium tuberculosis activity 2-week Alamar Blue 7H9/ADC/Tw MIC (uM); details: 336 h
[7] = test system: Mycobacterium tuberculosis; experiment: AntiMycobacterium tuberculosis activity 1-week 7H9/glucose/BSA/Tx MIC (uM); details: 168 h
[8] = test system: Mycobacterium tuberculosis; experiment: AntiMycobacterium tuberculosis activity 2-week 7H9/glucose/BSA/Tx MIC (uM); details: 336 h
[9] = test system: Mycobacterium tuberculosis; experiment: AntiMycobacterium tuberculosis activity 1-week 7H9/DPPC/cholesterol/BSA/Tx MIC (uM); details: 168 h
[10] = test system: Mycobacterium tuberculosis; experiment: AntiMycobacterium tuberculosis activity 2-week 7H9/DPPC/cholesterol/BSA/Tx MIC (uM); details: 336 h
[11] = test system: Mycobacterium tuberculosis; experiment: AntiMycobacterium tuberculosis activity 1-week 7H9/cholesterol/BSA/Tx MIC (uM); details: 168 h
[12] = test system: Mycobacterium tuberculosis; experiment: AntiMycobacterium tuberculosis activity 2-week Alamar Blue 7H9/cholesterol/BSA/Tx MIC (uM); details: 336 h
[13] = test system: Mycobacterium tuberculosis; experiment: (§1) AntiMycobacterium tuberculosis activity day 10 in 7H9/2.5mM butyrate/pH6/0.1mM nitrite MIC90 (uM); details: 240 h
[14] = test system: Mycobacterium tuberculosis; experiment: AntiMycobacterium tuberculosis activity day 21 in 7H9/2.5mM butyrate/pH6/0.1mM nitrite MIC90 (uM); details: 504 h
[15] = test system: Mycobacterium tuberculosis; experiment: as §1; details: 240 h; remark: listed apart in the source
[16] = test system: Mycobacterium tuberculosis; experiment: AntiMycobacterium tuberculosis activity day 21 MIC99 in 7H9/2.5mM butyrate/pH6/0.1mM nitrite MIC99 (uM); details: 504 h
[17] = test system: Mycobacterium tuberculosis; experiment: AntiMycobacterium tuberculosis activity Replicating form: Average MIC90 (uM)
HepG2 = experiment: HepG2 CC50 (uM) Cytotoxicity; details: Homo sapiens

Structure (SMILES) | MIC90 [1] [µM] | MIC [2] [µM] | MIC [3] [µM] | MIC [4] [µM] | MIC [5] [µM] | MIC [6] [µM] | MIC [7] [µM] | MIC [8] [µM] | MIC [9] [µM] | MIC [10] [µM] | MIC [11] [µM] | MIC [12] [µM] | MIC90 [13] [µM] | MIC90 [14] [µM] | MIC90 [15] [µM] | MIC [16] [µM] | MIC90 [17] [µM] | CC50 (HepG2) [µM]
O=C(C1CCN(c2nnc(-n3cccc3)s2)CC1)N1CCC(Cc2ccccc2)CC1 | 0.8 (≈ 0.348 µg/mL) | 0.02 (≈ 0.00871 µg/mL) | 0.02 (≈ 0.00871 µg/mL) | 0.1 (≈ 0.0436 µg/mL) | 0.07 (≈ 0.0305 µg/mL) | 0.07 (≈ 0.0305 µg/mL) | 0.1 (≈ 0.0436 µg/mL) | 0.1 (≈ 0.0436 µg/mL) | 0.02 (≈ 0.00871 µg/mL) | 0.04 (≈ 0.0174 µg/mL) | 0.02 (≈ 0.00871 µg/mL) | 0.05 (≈ 0.0218 µg/mL) | 0.19 (≈ 0.0828 µg/mL) | 0.19 (≈ 0.0828 µg/mL) | 0.78 (≈ 0.34 µg/mL) | 0.78 (≈ 0.34 µg/mL) | 0.94 (≈ 0.409 µg/mL) | > 100
COc1cccc(-n2nnnc2S(C)(=O)=O)c1 | 3.34 (≈ 0.849 µg/mL) | 0.78 (≈ 0.198 µg/mL) | 1.2 (≈ 0.305 µg/mL) | 12.5 (≈ 3.18 µg/mL) | 25 (≈ 6.36 µg/mL) | 25 (≈ 6.36 µg/mL) | 9.4 (≈ 2.39 µg/mL) | 25 (≈ 6.36 µg/mL) | 12.5 (≈ 3.18 µg/mL) | 50 (≈ 12.7 µg/mL) | 19 (≈ 4.83 µg/mL) | 50 (≈ 12.7 µg/mL) | 6.25 (≈ 1.59 µg/mL) | 12.5 (≈ 3.18 µg/mL) | 6.25 (≈ 1.59 µg/mL) | 12.5 (≈ 3.18 µg/mL) | 9.47 (≈ 2.41 µg/mL) | 1.7
CN1CCN(CCCOc2ncc(Nc3ncc(-c4ccc(C(F)(F)F)c(F)c4)nc3C(N)=O)cn2)CC1 | 3.1 (≈ 1.66 µg/mL) | 1.56 (≈ 0.834 µg/mL) | 1.56 (≈ 0.834 µg/mL) | 1.2 (≈ 0.641 µg/mL) | 1.56 (≈ 0.834 µg/mL) | 1.56 (≈ 0.834 µg/mL) | 1.2 (≈ 0.641 µg/mL) | 1.56 (≈ 0.834 µg/mL) | 0.2 (≈ 0.107 µg/mL) | 0.6 (≈ 0.321 µg/mL) | 0.39 (≈ 0.208 µg/mL) | 0.6 (≈ 0.321 µg/mL) | 0.78 (≈ 0.417 µg/mL) | 1.5 (≈ 0.802 µg/mL) | 12.5 (≈ 6.68 µg/mL) | 12.5 (≈ 6.68 µg/mL) | 3.46 (≈ 1.85 µg/mL) | 3.9
CCOC(=O)NC(=O)c1ccsc1NC(=O)c1nc2ccccc2s1 | 0.34 (≈ 0.128 µg/mL) | < 0.02 | < 0.02 | 0.2 (≈ 0.0751 µg/mL) | 0.15 (≈ 0.0563 µg/mL) | 0.15 (≈ 0.0563 µg/mL) | 0.2 (≈ 0.0751 µg/mL) | 0.2 (≈ 0.0751 µg/mL) | 0.1 (≈ 0.0375 µg/mL) | 0.1 (≈ 0.0375 µg/mL) | 0.05 (≈ 0.0188 µg/mL) | 0.1 (≈ 0.0375 µg/mL) | ≤ 0.04 | ≤ 0.04 | 0.19 (≈ 0.0713 µg/mL) | 0.09 (≈ 0.0338 µg/mL) | 0.69 (≈ 0.259 µg/mL) | 47
CCCCOC(=O)Nc1cc2nc(C3CCCCC3)[nH]c2cc1N1CCCC1 | 97.3 (≈ 37.4 µg/mL) | 0.1 (≈ 0.0385 µg/mL) | 0.15 (≈ 0.0577 µg/mL) | 0.05 (≈ 0.0192 µg/mL) | 0.2 (≈ 0.0769 µg/mL) | 0.2 (≈ 0.0769 µg/mL) | 0.2 (≈ 0.0769 µg/mL) | 0.39 (≈ 0.15 µg/mL) | 0.15 (≈ 0.0577 µg/mL) | 0.2 (≈ 0.0769 µg/mL) | 0.1 (≈ 0.0385 µg/mL) | 0.2 (≈ 0.0769 µg/mL) | 0.39 (≈ 0.15 µg/mL) | 0.78 (≈ 0.3 µg/mL) | 0.78 (≈ 0.3 µg/mL) | 0.78 (≈ 0.3 µg/mL) | 0.3 (≈ 0.115 µg/mL) | 26.8
COc1ccc(OC(C)C(=O)Nc2ccc(Cl)cc2C)cc1 (configuration not stated) | 12.2 (≈ 3.91 µg/mL) | 2.3 (≈ 0.736 µg/mL) | 2.3 (≈ 0.736 µg/mL) | 4.7 (≈ 1.5 µg/mL) | 6.25 (≈ 2 µg/mL) | 6.25 (≈ 2 µg/mL) | 9.4 (≈ 3.01 µg/mL) | 9.4 (≈ 3.01 µg/mL) | 6.25 (≈ 2 µg/mL) | 6.25 (≈ 2 µg/mL) | 9.4 (≈ 3.01 µg/mL) | 12.5 (≈ 4 µg/mL) | 25 (≈ 7.99 µg/mL) | 25 (≈ 7.99 µg/mL) | > 50 | 50 (≈ 16 µg/mL) | 14.6 (≈ 4.68 µg/mL) | > 100
Nc1cccnc1Nc1ccc(Cl)cc1 | 3.65 (≈ 0.802 µg/mL) | 50 (≈ 11 µg/mL) | 50 (≈ 11 µg/mL) | > 50 | > 50 | 37 (≈ 8.13 µg/mL) | 50 (≈ 11 µg/mL) | 50 (≈ 11 µg/mL) | 12.5 (≈ 2.75 µg/mL) | 19 (≈ 4.17 µg/mL) | 9.4 (≈ 2.06 µg/mL) | 4.7 (≈ 1.03 µg/mL) | 12.5 (≈ 2.75 µg/mL) | 50 (≈ 11 µg/mL) | > 50 | > 50 | 4.3 (≈ 0.945 µg/mL) | 9
Cc1cc(Cl)ccc1NC(=O)CCc1ccc(S(=O)(=O)NCC(C)C)cc1 | 13.4 (≈ 5.49 µg/mL) | 2.3 (≈ 0.941 µg/mL) | 2.3 (≈ 0.941 µg/mL) | 4.7 (≈ 1.92 µg/mL) | 6.25 (≈ 2.56 µg/mL) | 6.25 (≈ 2.56 µg/mL) | 4.7 (≈ 1.92 µg/mL) | 6.25 (≈ 2.56 µg/mL) | 3.13 (≈ 1.28 µg/mL) | 3.13 (≈ 1.28 µg/mL) | 3.13 (≈ 1.28 µg/mL) | 6.25 (≈ 2.56 µg/mL) | > 50 | 25 (≈ 10.2 µg/mL) | > 50 | 50 (≈ 20.4 µg/mL) | 14.4 (≈ 5.87 µg/mL) | > 100
Brc1c(-c2ccc3c(c2)OCO3)nc2ncccn12 | 27.8 (≈ 8.84 µg/mL) | 0.2 (≈ 0.0636 µg/mL) | 0.3 (≈ 0.0954 µg/mL) | 25 (≈ 7.95 µg/mL) | 37 (≈ 11.8 µg/mL) | 4.7 (≈ 1.5 µg/mL) | 25 (≈ 7.95 µg/mL) | 37 (≈ 11.8 µg/mL) | 3.13 (≈ 0.996 µg/mL) | 25 (≈ 7.95 µg/mL) | 1.56 (≈ 0.496 µg/mL) | 2.3 (≈ 0.732 µg/mL) | 1.5 (≈ 0.477 µg/mL) | 12.5 (≈ 3.98 µg/mL) | > 50 | 50 (≈ 15.9 µg/mL) | 45.1 (≈ 14.4 µg/mL) | > 100
